In article PMC4965148 (PLoS ONE, 2016):
Where “and” joins values, the source holds several entries; their conditions need not be identical. Equal entries are not always repeated. Where two headings read alike, the source gives them in different places.

Key:
HEK293/Human α7 nAChR = HEK293/Human α7 nAChR (Homo sapiens, UniProt P36544); test: [3H]-A-585539 filtration binding; set-up: expressed in transfected cells
rat α1β1δε nAChR = target: T1, rat α1β1δε nAChR (Rattus norvegicus, UniProt P09660+P25108+P25109+P25110); test: Ca2+ flux (FLIPR) agonist/antagonist assay; type: cell-based
T1 construct: expressed in transfected cells; host or cells: HEK293 (made by Bristol-Myers Squibb)

human 5-HT3A receptors = target: T2, human 5-HT3A receptors (Homo sapiens, UniProt P46098); test: biochemical
T2 sequence (P46098 24-478): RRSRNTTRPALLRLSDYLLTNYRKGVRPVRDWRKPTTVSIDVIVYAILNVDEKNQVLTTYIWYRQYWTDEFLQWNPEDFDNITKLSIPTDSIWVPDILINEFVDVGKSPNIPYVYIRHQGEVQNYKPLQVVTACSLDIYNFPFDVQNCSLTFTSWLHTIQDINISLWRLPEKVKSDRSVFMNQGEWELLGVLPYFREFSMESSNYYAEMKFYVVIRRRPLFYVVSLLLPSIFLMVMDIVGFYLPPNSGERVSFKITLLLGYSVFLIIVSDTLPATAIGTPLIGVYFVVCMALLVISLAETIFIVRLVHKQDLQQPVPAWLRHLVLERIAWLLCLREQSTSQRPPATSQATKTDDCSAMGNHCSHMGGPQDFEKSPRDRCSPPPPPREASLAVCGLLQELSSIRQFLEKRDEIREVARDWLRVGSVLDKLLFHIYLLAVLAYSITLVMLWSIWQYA

rat α4β2 nAChR = target: T3, rat α4β2 nAChR (Rattus norvegicus, UniProt P09483+P12390); test: Ca2+ flux (FLIPR) agonist/antagonist assay; type: cell-based
T3 construct: expressed in transfected cells; host or cells: HEK293 (made by Bristol-Myers Squibb)

[1] = target: T4, HEK293/rat α7 nAChR cells (Rattus norvegicus, UniProt Q05941); test: Whole cell voltage clamp electrophysiology; type: cell-based; conditions: for Net Charge (Current Area) normalized to 300 µM ACh / Peak Current normalized to 3 mM ACh: individual cells
T4 construct: expressed in transfected cells
Description: (§1) Whole-cell voltage clamp studies were conducted on HEK293/rat α7 or HEK293/human α7 nAChR cells. […] Atropine (1 μM) was included in the bathing solution. […] Cells were voltage clamped at a holding potential of -90 mV. Using the Dynaflow microfluidic perfusion system (Cellectricon; flow 26 μl/min) responses to a 300 ms application of ACh or α7 nAChR agonists were measured. Currents were filtered at 2 kHz and sampled at 10 kHz using an EPC-9 amplifier and HEKA Pulse/Patchmaster software. […] The peak current amplitude and net charge crossing the membrane (i.e. the area under the current response curve) induced by agonist application were measured using Clampfit (pClamp Suite) and normalized to the maximal response induced by ACh (3 mM ACh for peak current amplitude and 300 μM ACh for net charge).

rat α3β4 nAChR = target: T5, rat α3β4 nAChR (Rattus norvegicus, UniProt P04757+P12392); test: Ca2+ flux (FLIPR) agonist/antagonist assay; type: cell-based
T5 construct: expressed in transfected cells; host or cells: HEK293 (made by Bristol-Myers Squibb)

HEK293/Human 5-HT3A = target: T6, HEK293/Human 5-HT3A (Homo sapiens, UniProt P46098); test: Ca2+ flux (FLIPR) 5-HT3A antagonist assay; type: cell-based
T6 construct: expressed in transfected cells; host or cells: HEK293 (made by Bristol-Myers Squibb)
T6 sequence (P46098 24-478): T2 sequence (P46098 24-478)
Description: Functional activity was examined using Ca^2+-sensitive, dye-based, microfluorometric assays read on the FLIPR Tetra plate reader platform (Molecular Devices, CA, USA). Cells were plated in 384-well black, clear-bottomed Greiner poly-D-lysine coated plates at a density of ~25 K cells/well and incubated at 29°C for 48 h. Prior to assay, media contents were removed and cells incubated in assay buffer containing 5μM final Fluo-4 dye for 90 min. For nAChR assays, the dye-loading buffer was HBSS (#14175 Life Technologies) supplemented with 20 mM HEPES, 0.5 mM CaCl2, 1 mM MgCl2 and 10 μM atropine (final concentration). Test compounds were solubilized in DMSO and serially diluted in NUNC 384-well plates prior to addition of assay buffer (5.3 mM KCl + 140 mM NaCl + 20 mM Hepes + 25 mM CaCl2 + 1 mM MgCl2 + 10 μM atropine final concentration). Compounds diluted in assay buffer were added to the assay plate by the FLIPR and read for approximately 2 min. […] For 5-HT3A antagonist studies, the dye loading and compound diluent buffer was HBSS (#14025 Life Technologies) supplemented with 20 mM HEPES (final concentration) and the concentration of 5-HT used in the assay was 2 μM. Offline transformation of concentration response data was done using a 4 parameter logistic fit using a Bristol-Myers Squibb proprietary informatics software suite.

α7 nAChR = conditions: read-out: reported Ki; cited from earlier work
[2] = target: T7, HEK293/human α7 nAChR cells (Homo sapiens, UniProt P36544); test: Whole cell voltage clamp electrophysiology; type: cell-based; conditions: for Net Charge (Current Area) normalized to 300 µM ACh / Peak Current normalized to 3 mM ACh: individual cells
T7 construct: expressed in transfected cells
Description: as §1

[3] = Ca2+ flux (FLIPR), antagonism of 2 μM 5-HT, read-out: HEK293/Human 5-HT3A Mean ± SD IC50
[4] = FLIPR, individual determinations, read-out: Human 5-HT3A IC50 values (individual)

Sequence of HEK293/Human α7 nAChR (P36544 23-502): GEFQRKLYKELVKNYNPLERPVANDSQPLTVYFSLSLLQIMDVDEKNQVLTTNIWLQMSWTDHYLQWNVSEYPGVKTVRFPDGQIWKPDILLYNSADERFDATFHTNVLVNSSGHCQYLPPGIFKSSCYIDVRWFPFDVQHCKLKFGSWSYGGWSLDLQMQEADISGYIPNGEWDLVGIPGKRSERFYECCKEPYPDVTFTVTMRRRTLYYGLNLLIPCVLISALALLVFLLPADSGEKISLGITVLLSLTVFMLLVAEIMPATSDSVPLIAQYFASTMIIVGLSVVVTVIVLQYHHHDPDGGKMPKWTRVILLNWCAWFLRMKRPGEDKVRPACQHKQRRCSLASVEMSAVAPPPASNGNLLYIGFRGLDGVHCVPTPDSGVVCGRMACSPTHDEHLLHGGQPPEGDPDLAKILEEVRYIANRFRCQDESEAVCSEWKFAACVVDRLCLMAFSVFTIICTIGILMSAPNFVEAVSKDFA
T7 sequence (P36544 23-502): as above
T1 sequence (P25108 21-457): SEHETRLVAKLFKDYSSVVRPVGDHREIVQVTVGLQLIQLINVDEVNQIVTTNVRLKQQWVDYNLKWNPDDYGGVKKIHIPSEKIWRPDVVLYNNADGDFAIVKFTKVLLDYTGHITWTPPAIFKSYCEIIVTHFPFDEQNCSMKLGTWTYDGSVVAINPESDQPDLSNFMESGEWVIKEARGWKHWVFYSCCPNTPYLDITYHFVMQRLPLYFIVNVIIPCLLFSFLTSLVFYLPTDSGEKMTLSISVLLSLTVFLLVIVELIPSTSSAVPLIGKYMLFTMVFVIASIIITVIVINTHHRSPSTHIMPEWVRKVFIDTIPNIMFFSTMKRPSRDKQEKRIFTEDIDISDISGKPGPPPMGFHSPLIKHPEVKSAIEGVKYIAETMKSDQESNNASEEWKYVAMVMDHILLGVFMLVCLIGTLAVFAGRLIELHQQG
T1 sequence (P25109 24-501): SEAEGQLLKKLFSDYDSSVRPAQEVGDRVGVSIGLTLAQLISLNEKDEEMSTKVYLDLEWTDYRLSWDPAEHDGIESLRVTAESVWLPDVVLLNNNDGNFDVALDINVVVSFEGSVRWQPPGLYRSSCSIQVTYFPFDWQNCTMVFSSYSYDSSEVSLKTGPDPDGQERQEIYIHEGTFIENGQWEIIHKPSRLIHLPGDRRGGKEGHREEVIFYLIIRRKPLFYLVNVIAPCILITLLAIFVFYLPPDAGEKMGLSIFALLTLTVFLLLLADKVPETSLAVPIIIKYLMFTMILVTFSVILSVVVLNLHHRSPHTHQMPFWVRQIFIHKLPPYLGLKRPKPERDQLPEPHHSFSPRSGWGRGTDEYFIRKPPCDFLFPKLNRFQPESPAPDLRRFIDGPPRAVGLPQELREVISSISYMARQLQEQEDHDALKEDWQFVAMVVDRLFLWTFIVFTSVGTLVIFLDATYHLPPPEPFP
T1 sequence (P25110 22-517): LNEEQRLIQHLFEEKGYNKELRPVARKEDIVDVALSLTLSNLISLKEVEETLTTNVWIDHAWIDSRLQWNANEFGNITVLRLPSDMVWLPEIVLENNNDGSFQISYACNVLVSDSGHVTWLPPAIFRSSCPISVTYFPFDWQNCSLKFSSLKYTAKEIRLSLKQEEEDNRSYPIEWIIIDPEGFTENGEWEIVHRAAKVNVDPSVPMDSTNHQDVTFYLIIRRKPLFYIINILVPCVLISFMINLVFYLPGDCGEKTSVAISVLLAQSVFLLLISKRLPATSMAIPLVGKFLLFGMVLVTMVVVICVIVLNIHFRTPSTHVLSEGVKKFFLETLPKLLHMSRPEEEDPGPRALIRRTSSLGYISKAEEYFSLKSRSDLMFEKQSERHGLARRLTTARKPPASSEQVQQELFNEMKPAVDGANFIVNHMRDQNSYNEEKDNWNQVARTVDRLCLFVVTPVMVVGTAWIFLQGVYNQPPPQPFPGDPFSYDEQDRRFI
T1 sequence (P09660 21-494): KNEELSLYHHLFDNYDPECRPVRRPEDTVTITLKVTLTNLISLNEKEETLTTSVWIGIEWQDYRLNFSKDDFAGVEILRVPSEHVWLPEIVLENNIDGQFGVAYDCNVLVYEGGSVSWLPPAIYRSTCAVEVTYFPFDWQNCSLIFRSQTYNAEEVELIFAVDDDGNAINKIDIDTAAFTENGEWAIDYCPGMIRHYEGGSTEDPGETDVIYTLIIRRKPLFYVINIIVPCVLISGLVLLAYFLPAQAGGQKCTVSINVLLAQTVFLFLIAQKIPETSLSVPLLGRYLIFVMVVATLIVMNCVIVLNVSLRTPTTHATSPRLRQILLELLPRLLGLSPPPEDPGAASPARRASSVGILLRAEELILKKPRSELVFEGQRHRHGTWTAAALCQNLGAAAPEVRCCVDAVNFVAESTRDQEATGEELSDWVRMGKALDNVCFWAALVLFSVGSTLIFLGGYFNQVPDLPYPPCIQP
T4 sequence (Q05941 23-502): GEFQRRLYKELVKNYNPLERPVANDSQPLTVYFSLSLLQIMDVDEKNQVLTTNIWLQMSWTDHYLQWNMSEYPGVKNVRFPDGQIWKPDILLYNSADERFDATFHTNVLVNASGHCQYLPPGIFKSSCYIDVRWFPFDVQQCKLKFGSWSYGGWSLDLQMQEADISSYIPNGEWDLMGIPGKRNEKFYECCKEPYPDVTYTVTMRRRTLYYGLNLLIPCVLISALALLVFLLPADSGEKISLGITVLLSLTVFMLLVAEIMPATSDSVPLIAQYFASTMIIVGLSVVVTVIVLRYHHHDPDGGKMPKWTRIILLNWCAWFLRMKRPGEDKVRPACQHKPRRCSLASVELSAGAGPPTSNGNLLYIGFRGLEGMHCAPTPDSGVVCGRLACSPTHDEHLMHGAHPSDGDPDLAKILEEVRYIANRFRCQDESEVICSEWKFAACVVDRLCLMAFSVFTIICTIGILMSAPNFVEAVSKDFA
T3 sequence (P09483 31-630): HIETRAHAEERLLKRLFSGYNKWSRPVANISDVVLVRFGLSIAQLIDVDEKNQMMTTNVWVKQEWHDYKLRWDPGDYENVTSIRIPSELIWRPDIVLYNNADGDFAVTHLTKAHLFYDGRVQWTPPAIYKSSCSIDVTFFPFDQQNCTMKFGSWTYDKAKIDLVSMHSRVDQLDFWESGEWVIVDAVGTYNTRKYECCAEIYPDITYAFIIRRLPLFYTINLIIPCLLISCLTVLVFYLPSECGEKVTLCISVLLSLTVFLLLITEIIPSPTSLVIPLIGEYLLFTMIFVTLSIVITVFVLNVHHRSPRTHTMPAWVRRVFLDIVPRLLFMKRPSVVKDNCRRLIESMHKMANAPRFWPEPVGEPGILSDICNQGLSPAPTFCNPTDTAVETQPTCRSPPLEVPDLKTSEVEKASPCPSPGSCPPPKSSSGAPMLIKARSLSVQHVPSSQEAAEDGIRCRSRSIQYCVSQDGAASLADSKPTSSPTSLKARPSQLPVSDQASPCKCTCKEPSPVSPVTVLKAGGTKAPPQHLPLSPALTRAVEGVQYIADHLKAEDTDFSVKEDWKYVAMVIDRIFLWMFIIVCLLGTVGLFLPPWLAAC
T3 sequence (P12390 25-500): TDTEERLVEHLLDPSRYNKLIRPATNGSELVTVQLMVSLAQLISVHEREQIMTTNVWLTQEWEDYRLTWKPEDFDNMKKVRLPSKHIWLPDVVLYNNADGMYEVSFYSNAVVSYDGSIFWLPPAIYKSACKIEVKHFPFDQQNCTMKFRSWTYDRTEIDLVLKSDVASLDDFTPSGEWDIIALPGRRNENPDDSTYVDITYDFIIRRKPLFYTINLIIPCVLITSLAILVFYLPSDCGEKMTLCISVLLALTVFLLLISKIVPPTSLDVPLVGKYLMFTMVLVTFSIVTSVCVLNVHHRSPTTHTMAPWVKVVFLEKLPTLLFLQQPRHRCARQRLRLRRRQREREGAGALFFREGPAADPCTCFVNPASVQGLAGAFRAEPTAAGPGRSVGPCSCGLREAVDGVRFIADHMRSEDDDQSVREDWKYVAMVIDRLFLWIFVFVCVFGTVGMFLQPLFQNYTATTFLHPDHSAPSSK
T5 sequence (P04757 26-499): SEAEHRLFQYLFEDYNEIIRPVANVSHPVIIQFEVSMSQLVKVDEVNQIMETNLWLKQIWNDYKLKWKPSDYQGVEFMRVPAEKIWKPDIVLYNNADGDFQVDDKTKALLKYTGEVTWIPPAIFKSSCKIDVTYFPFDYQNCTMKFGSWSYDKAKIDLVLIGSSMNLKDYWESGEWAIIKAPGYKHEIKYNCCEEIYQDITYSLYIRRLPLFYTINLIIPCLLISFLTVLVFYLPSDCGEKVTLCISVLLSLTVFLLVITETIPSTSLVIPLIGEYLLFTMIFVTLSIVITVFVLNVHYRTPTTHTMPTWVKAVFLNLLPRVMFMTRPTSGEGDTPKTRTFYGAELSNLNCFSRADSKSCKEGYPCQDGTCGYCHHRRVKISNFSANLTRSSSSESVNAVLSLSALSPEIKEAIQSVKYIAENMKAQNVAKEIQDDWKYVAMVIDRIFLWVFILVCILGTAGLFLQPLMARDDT
T5 sequence (P12392 21-495): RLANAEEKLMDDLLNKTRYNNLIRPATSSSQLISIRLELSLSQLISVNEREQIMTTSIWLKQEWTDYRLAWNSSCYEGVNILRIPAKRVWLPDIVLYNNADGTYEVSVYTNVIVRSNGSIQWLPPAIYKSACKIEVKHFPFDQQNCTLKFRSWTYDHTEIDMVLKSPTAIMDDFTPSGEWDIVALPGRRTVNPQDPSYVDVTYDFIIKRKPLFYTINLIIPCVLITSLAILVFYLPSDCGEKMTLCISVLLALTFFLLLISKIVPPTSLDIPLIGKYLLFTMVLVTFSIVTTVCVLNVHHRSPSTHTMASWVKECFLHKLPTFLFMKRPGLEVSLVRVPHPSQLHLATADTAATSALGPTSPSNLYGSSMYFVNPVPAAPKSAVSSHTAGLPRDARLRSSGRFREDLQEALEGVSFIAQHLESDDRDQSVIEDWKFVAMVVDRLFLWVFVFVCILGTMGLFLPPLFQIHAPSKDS

With Clc1ccc(C2CC3CCC2N3)cn1 (racemic) [Epibatidine, (±)epibatidine] the Ki (HEK293/Human α7 nAChR; HEK293/Human α7 nAChR Mean ± SD Ki, displacement of [3H]-A-585539) was 10.5 ± 1.58 nM, the Ki (HEK293/Human α7 nAChR; HEK293/human α7 nAChR Ki (individual), individual determinations) was 9.7 nM (2×) and 12.9 nM and 9.8 nM and the EC50 (rat α1β1δε nAChR) was over 1000 nM.
For O=C(N[C@@H]1C2CCN(CC2)[C@H]1Cc1cccnc1)c1cc2ccccc2o1 [TC-5619, (2S,3R)-N-[2-(pyridin-3-ylmethyl)-1-azabicyclo[2.2.2]oct-3-yl]benzo[b]furan-2-carboxamide], the Ki (human 5-HT3A receptors; human 5-HT3A Ki, displacement of [3H]-granisetron) was over 10000 nM, the EC50 (rat α1β1δε nAChR) was over 100000 nM and the EC50 (rat α4β2 nAChR) was over 100000 nM. For the same molecule, the “Net Charge (Current Area) normalized to 300 µM ACh” value ([1]; 0.001 µM) was 0.01291 and 0.1795 and 0.008199, the “Peak Current normalized to 3 mM ACh” value ([1]; 0.001 µM) was 0.003543 and 0.01162 and 0.003662 and the “Net Charge (Current Area) normalized to 300 µM ACh” value ([1]; 0.003 µM) was -0.00013 and 0.03241 and 0.001885. For the same molecule, the “Peak Current normalized to 3 mM ACh” value ([1]; 0.003 µM) was 0.003116 and 0.008701 and 0.005453, the “Net Charge (Current Area) normalized to 300 µM ACh” value ([1]; 0.01 µM) was 0.000016 and 0.002188 and -0.00959 and the “Peak Current normalized to 3 mM ACh” value ([1]; 0.01 µM) was 0.006073 and 0.007536 and 0.009875. For the same molecule, the “Net Charge (Current Area) normalized to 300 µM ACh” value ([1]; 0.03 µM) was 0.1492 and 0.1468 and 0.2028, the “Peak Current normalized to 3 mM ACh” value ([1]; 0.03 µM) was 0.02004 and 0.01567 and 0.02139 and the “Mean ± SEM Net Charge Ymax” value ([1]; Rat, normalized to 300 μM ACh) was 1.26 ± 0.02. For the same molecule, the “Mean ± SEM Peak Current Ymaxobs @ 10 μM” value ([1]; Rat, normalized to 3 mM ACh) was 0.55 ± 0.06, the “Net Charge (Current Area) normalized to 300 µM ACh” value ([1]; TC-5619 series 0.1 µM) was 0.6879 and 0.7239 and 0.8481 and the “Peak Current normalized to 3 mM ACh” value ([1]; TC-5619 series 0.1 µM) was 0.05408 and 0.04485 and 0.05183. The “Net Charge (Current Area) normalized to 300 µM ACh” value ([1]; TC-5619 series 0.3 µM) was 1.093 and 1.107 and 1.105, the “Peak Current normalized to 3 mM ACh” value ([1]; TC-5619 series 0.3 µM) was 0.1599 and 0.1241 and 0.1149 and the “Net Charge (Current Area) normalized to 300 µM ACh” value ([1]; TC-5619 series 1 µM) was 1.242 and 1.143 and 1.297. The “Peak Current normalized to 3 mM ACh” value ([1]; TC-5619 series 1 µM) was 0.276 and 0.2576 and 0.2679, the “Net Charge (Current Area) normalized to 300 µM ACh” value ([1]; TC-5619 series 3 µM) was 1.234 and 1.271 and 1.312 and the “Peak Current normalized to 3 mM ACh” value ([1]; TC-5619 series 3 µM) was 0.4166 and 0.4279 and 0.4555. For the same molecule, the “Net Charge (Current Area) normalized to 300 µM ACh” value ([1]; TC-5619 series 10 µM) was 1.226 and 1.317 and 1.306, the “Peak Current normalized to 3 mM ACh” value ([1]; TC-5619 series 10 µM) was 0.4847 and 0.4851 and 0.6732 and the EC50 (rat α3β4 nAChR) was over 100000 nM. The IC50 (HEK293/Human 5-HT3A; [3]) was over 100000 nM, the IC50 (HEK293/Human 5-HT3A; [4]) was over 100000 nM and the Ki (α7 nAChR) was 1 nM.
For O=C(N[C@H]1CN2CCC1CC2)c1cc2cccc(Cl)c2s1 [EVP-6124, (R)-7-chloro-N-(quinuclidin-3-yl)benzo[b]thiophene-2-carboxamide, reference compound], the Ki (HEK293/Human α7 nAChR; displacement of [3H]-A-585539, read-out: HEK293/Human α7 nAChR Mean ± SD Ki) was 3 ± 1.13 nM, the Ki (HEK293/Human α7 nAChR; individual determinations, read-out: HEK293/human α7 nAChR Ki (individual)) was 2.2 nM and 3.8 nM and the Ki (human 5-HT3A receptors) was 2.5 nM. For the same molecule, the EC50 (rat α1β1δε nAChR; FLIPR agonist mode, read-out: agonist EC50 at α1β1δε nAChR) was over 100000 nM, the EC50 (rat α4β2 nAChR; FLIPR agonist mode, read-out: agonist EC50 at α4β2 nAChR) was over 100000 nM and the “Net Charge (Current Area) normalized to 300 µM ACh” value ([2]; 0.03 µM) was 0.1633 and 0.2064 and 0.1153 and 0.1342. The “Peak Current normalized to 3 mM ACh” value ([2]; 0.03 µM) was 0.0231 and 0.03032 and 0.02328 and 0.01316, the “Net Charge (Current Area) normalized to 300 µM ACh” value ([2]; EVP-6124 series 0.1 µM) was 0.8405 and 1.081 and 0.8479 and 0.8723 and the “Peak Current normalized to 3 mM ACh” value ([2]; EVP-6124 series 0.1 µM) was 0.0485 and 0.06704 and 0.0971 and 0.0413. For the same molecule, the “Net Charge (Current Area) normalized to 300 µM ACh” value ([2]; EVP-6124 series 0.3 µM) was 1.201 and 1.302 and 1.445 and 1.418, the “Peak Current normalized to 3 mM ACh” value ([2]; EVP-6124 series 0.3 µM) was 0.1072 and 0.154 and 0.07666 and 0.07157 and the “Net Charge (Current Area) normalized to 300 µM ACh” value ([2]; EVP-6124 series 1 µM) was 1.414 and 1.499 and 1.608 and 1.442. For the same molecule, the “Peak Current normalized to 3 mM ACh” value ([2]; EVP-6124 series 1 µM) was 0.127 and 0.1447 and 0.2547 and 0.1421, the “Net Charge (Current Area) normalized to 300 µM ACh” value ([2]; EVP-6124 series 3 µM) was 1.22 and 1.197 and 1.304 and 1.07 and the “Peak Current normalized to 3 mM ACh” value ([2]; EVP-6124 series 3 µM) was 0.1877 and 0.2441 and 0.3832 and 0.2558. For the same molecule, the “Net Charge (Current Area) normalized to 300 µM ACh” value ([2]; EVP-6124 series 10 µM) was 0.349 and 0.4055 and 0.3939 and 0.327, the “Peak Current normalized to 3 mM ACh” value ([2]; EVP-6124 series 10 µM) was 0.2438 and 0.2654 and 0.4627 and 0.3034 and the “Mean ± SEM Net Charge Ymax” value ([2]; Human, normalized to 300 μM ACh) was 1.36 ± 0.09. The “Mean ± SEM Peak Current Ymaxobs @ 10 μM” value ([2]; Human, normalized to 3 mM ACh) was 0.32 ± 0.05, the EC50 ([2]; Human, read-out: Mean ± SEM Net Charge EC50) was 70 ± 20 nM and the EC50 (rat α3β4 nAChR; FLIPR agonist mode, read-out: agonist EC50 at α3β4 nAChR) was over 100000 nM. For the same molecule, the IC50 (HEK293/Human 5-HT3A; [3]) was 4 ± 2.1 nM, the IC50 (HEK293/Human 5-HT3A; [4]) was 6 nM and 3 nM and 1 nM and 5 nM and the Ki (α7 nAChR) was 10 nM.
